Assay [1] has as its system Staphylococcus aureus. Briefly: Antibiofilm activity against methicillin-resistant Staphylococcus aureus assessed as inhibition of biofilm formation incubated for overnight by crystal violet staining based microtiter plate assay. The assay is classed as functional, organism-based.
The subject of assay [2] is Staphylococcus aureus. Briefly: Antibacterial activity against methicillin-resistant Staphylococcus aureus assessed as alteration in bacterial growth incubated for overnight by microtiter plate based spectrophotometric analysis. Format: functional, organism-based.
Assay [3] has as its system Staphylococcus aureus. Briefly: Antibiofilm activity against methicillin-resistant Staphylococcus aureus assessed as inhibition of biofilm formation by measuring residual biofilm growth incubated for overnight at 10-fold dilution by crystal violet staining based microtiter plate assay relative to control. Format: functional.

The source made the active and inactive calls. Non-standard residues stand in square brackets, D forms with d. Residues, ends and D or L forms follow the SMILES beside them. hArg = N=C(N)NCCCC[C@H](N)C(=O)O; Agb = N=C(N)NCC[C@H](N)C(=O)O; Agp = N=C(N)NC[C@H](N)C(=O)O; Orn = NCCC[C@H](N)C(=O)O; Dab = NCC[C@H](N)C(=O)O; Dap = NC[C@H](N)C(=O)O

In the case of `CC[C@H](C)[C@H](NC(=O)[C@H](CCCNC(=N)N)NC(=O)[C@@H](NC(=O)[C@H](C)NC(=O)[C@@H](NC(=O)[C@@H](NC(=O)[C@H](CC(C)C)NC(=O)[C@H](CCCNC(=N)N)NC(=O)[C@@H](N)C(C)C)[C@@H](C)CC)C(C)C)C(C)C)C(=O)N[C@@H](Cc1c[nH]c2ccccc12)C(=O)N[C@@H](CCCNC(=N)N)C(=O)N[C@@H](CCNC(=N)N)C(N)=O` (H-VRLIVAVRIWR[Agb]-NH2), the inhibition entry with Staphylococcus aureus [1] is “Dose-dependent effect”. In addition, the outcome with Staphylococcus aureus [2] was Active. In addition, the “residual biofilm growth (% of control)” value with Staphylococcus aureus [3] is listed as 39.9%.
`CC[C@H](C)[C@H](NC(=O)[C@H](CCCNC(=N)N)NC(=O)[C@@H](NC(=O)[C@H](C)NC(=O)[C@@H](NC(=O)[C@@H](NC(=O)[C@H](CC(C)C)NC(=O)[C@H](CCCNC(=N)N)NC(=O)[C@@H](N)C(C)C)[C@@H](C)CC)C(C)C)C(C)C)C(=O)N[C@@H](Cc1c[nH]c2ccccc12)C(=O)N[C@@H](CCCNC(=N)N)C(=O)N[C@@H](CNC(=N)N)C(N)=O` (H-VRLIVAVRIWR[Agp]-NH2): the outcome in the assay with Staphylococcus aureus [3] was inactive.
Still for that read-out and setting: then `CC[C@H](C)[C@H](NC(=O)[C@H](CCCNC(=N)N)NC(=O)[C@@H](NC(=O)[C@H](C)NC(=O)[C@@H](NC(=O)[C@@H](NC(=O)[C@H](CC(C)C)NC(=O)[C@H](CCCNC(=N)N)NC(=O)[C@@H](N)C(C)C)[C@@H](C)CC)C(C)C)C(C)C)C(=O)N[C@@H](Cc1c[nH]c2ccccc12)C(=O)N[C@@H](CCCNC(=N)N)C(=O)N[C@@H](CCN)C(N)=O` (H-VRLIVAVRIWR[Dab]-NH2), with “inactive”.
For `CC[C@H](C)[C@H](NC(=O)[C@H](CCCNC(=N)N)NC(=O)[C@@H](NC(=O)[C@H](C)NC(=O)[C@@H](NC(=O)[C@@H](NC(=O)[C@H](CC(C)C)NC(=O)[C@H](CCCNC(=N)N)NC(=O)[C@@H](N)C(C)C)[C@@H](C)CC)C(C)C)C(C)C)C(=O)N[C@@H](Cc1c[nH]c2ccccc12)C(=O)N[C@@H](CCCNC(=N)N)C(=O)N[C@@H](CN)C(N)=O` (H-VRLIVAVRIWR[Dap]-NH2), in the assay on Staphylococcus aureus [1], the inhibition result is “Dose-dependent effect”. For the same compound, the result in the assay with Staphylococcus aureus [2] was Active. For the same compound, the “residual biofilm growth (% of control)” value with Staphylococcus aureus [3] turned out to be 11.9%.
In the case of `CC[C@H](C)[C@H](NC(=O)[C@H](CCCNC(=N)N)NC(=O)[C@@H](NC(=O)[C@H](C)NC(=O)[C@@H](NC(=O)[C@@H](NC(=O)[C@H](CC(C)C)NC(=O)[C@H](CCCNC(=N)N)NC(=O)[C@@H](N)C(C)C)[C@@H](C)CC)C(C)C)C(C)C)C(=O)N[C@@H](Cc1c[nH]c2ccccc12)C(=O)N[C@@H](CCCNC(=N)N)C(=O)N[C@@H](CCCN)C(N)=O` (H-VRLIVAVRIWR[Orn]-NH2), the inhibition entry in the assay with Staphylococcus aureus [1] was “Dose-dependent effect”. In addition, in the assay on Staphylococcus aureus [2], the outcome was Active. The “residual biofilm growth (% of control)” value with Staphylococcus aureus [3] is given as 7.3%.
With `CC[C@H](C)[C@H](NC(=O)[C@H](CCCNC(=N)N)NC(=O)[C@@H](NC(=O)[C@H](C)NC(=O)[C@@H](NC(=O)[C@@H](NC(=O)[C@H](CC(C)C)NC(=O)[C@H](CCCNC(=N)N)NC(=O)[C@@H](N)C(C)C)[C@@H](C)CC)C(C)C)C(C)C)C(=O)N[C@@H](Cc1c[nH]c2ccccc12)C(=O)N[C@@H](CCCNC(=N)N)C(=O)N[C@@H](CCCCNC(=N)N)C(N)=O` (H-VRLIVAVRIWR[hArg]-NH2), the inhibition entry with Staphylococcus aureus [1] is “Dose-dependent effect”. Moreover, the outcome in the assay with Staphylococcus aureus [2] was Active. In addition, in the assay on Staphylococcus aureus [3], the “residual biofilm growth (% of control)” value came to 8.5%.
As to `CC[C@H](C)[C@H](NC(=O)[C@H](CCCNC(=N)N)NC(=O)[C@@H](NC(=O)[C@H](C)NC(=O)[C@@H](NC(=O)[C@@H](NC(=O)[C@H](CC(C)C)NC(=O)[C@H](CCCNC(=N)N)NC(=O)[C@@H](N)C(C)C)[C@@H](C)CC)C(C)C)C(C)C)C(=O)N[C@@H](Cc1c[nH]c2ccccc12)C(=O)N[C@@H](CCNC(=N)N)C(=O)N[C@@H](CCCNC(=N)N)C(N)=O` (H-VRLIVAVRIW[Agb]R-NH2), in the assay on Staphylococcus aureus [3], the result was inactive.
Regarding `CC[C@H](C)[C@H](NC(=O)[C@H](CCCNC(=N)N)NC(=O)[C@@H](NC(=O)[C@H](C)NC(=O)[C@@H](NC(=O)[C@@H](NC(=O)[C@H](CC(C)C)NC(=O)[C@H](CCCNC(=N)N)NC(=O)[C@@H](N)C(C)C)[C@@H](C)CC)C(C)C)C(C)C)C(=O)N[C@@H](Cc1c[nH]c2ccccc12)C(=O)N[C@@H](CNC(=N)N)C(=O)N[C@@H](CCCNC(=N)N)C(N)=O` (H-VRLIVAVRIW[Agp]R-NH2), the result in the assay on Staphylococcus aureus [3] was inactive.
On to `CC[C@H](C)[C@H](NC(=O)[C@H](CCCNC(=N)N)NC(=O)[C@@H](NC(=O)[C@H](C)NC(=O)[C@@H](NC(=O)[C@@H](NC(=O)[C@H](CC(C)C)NC(=O)[C@H](CCCNC(=N)N)NC(=O)[C@@H](N)C(C)C)[C@@H](C)CC)C(C)C)C(C)C)C(=O)N[C@@H](Cc1c[nH]c2ccccc12)C(=O)N[C@@H](CCN)C(=O)N[C@@H](CCCNC(=N)N)C(N)=O` (H-VRLIVAVRIW[Dab]R-NH2), for which the outcome with Staphylococcus aureus [3] was inactive.
For the compound `CC[C@H](C)[C@H](NC(=O)[C@H](CCCNC(=N)N)NC(=O)[C@@H](NC(=O)[C@H](C)NC(=O)[C@@H](NC(=O)[C@@H](NC(=O)[C@H](CC(C)C)NC(=O)[C@H](CCCNC(=N)N)NC(=O)[C@@H](N)C(C)C)[C@@H](C)CC)C(C)C)C(C)C)C(=O)N[C@@H](Cc1c[nH]c2ccccc12)C(=O)N[C@@H](CN)C(=O)N[C@@H](CCCNC(=N)N)C(N)=O` (H-VRLIVAVRIW[Dap]R-NH2), the inhibition entry in the assay on Staphylococcus aureus [1] is “Dose-dependent effect”. In addition, the result with Staphylococcus aureus [2] was Active. For the same compound, the “residual biofilm growth (% of control)” value in the assay with Staphylococcus aureus [3] was determined as 19.9%.
In the case of `CC[C@H](C)[C@H](NC(=O)[C@H](CCCNC(=N)N)NC(=O)[C@@H](NC(=O)[C@H](C)NC(=O)[C@@H](NC(=O)[C@@H](NC(=O)[C@H](CC(C)C)NC(=O)[C@H](CCCNC(=N)N)NC(=O)[C@@H](N)C(C)C)[C@@H](C)CC)C(C)C)C(C)C)C(=O)N[C@@H](Cc1c[nH]c2ccccc12)C(=O)N[C@@H](CCCN)C(=O)N[C@@H](CCCNC(=N)N)C(N)=O` (H-VRLIVAVRIW[Orn]R-NH2), the inhibition entry in the assay with Staphylococcus aureus [1] is “Dose-dependent effect”. Besides, in the assay on Staphylococcus aureus [2], the outcome was Active. Also, the “residual biofilm growth (% of control)” value in the assay on Staphylococcus aureus [3] was 12.3%.
Regarding `CC[C@H](C)[C@H](NC(=O)[C@H](CCCNC(=N)N)NC(=O)[C@@H](NC(=O)[C@H](C)NC(=O)[C@@H](NC(=O)[C@@H](NC(=O)[C@H](CC(C)C)NC(=O)[C@H](CCCNC(=N)N)NC(=O)[C@@H](N)C(C)C)[C@@H](C)CC)C(C)C)C(C)C)C(=O)N[C@@H](Cc1c[nH]c2ccccc12)C(=O)N[C@@H](CCCCNC(=N)N)C(=O)N[C@@H](CCCNC(=N)N)C(N)=O` (H-VRLIVAVRIW[hArg]R-NH2), in the assay with Staphylococcus aureus [1], the inhibition entry was “Dose-dependent effect”. For the same compound, the result with Staphylococcus aureus [2] was Active. Also, in the assay with Staphylococcus aureus [3], the “residual biofilm growth (% of control)” value is 10.8%.
With `CC[C@H](C)[C@H](NC(=O)[C@H](CCCNC(=N)N)NC(=O)[C@@H](NC(=O)[C@H](C)NC(=O)[C@@H](NC(=O)[C@@H](NC(=O)[C@H](CC(C)C)NC(=O)[C@H](CCCNC(=N)N)NC(=O)[C@@H](N)C(C)C)[C@@H](C)CC)C(C)C)C(C)C)C(=O)N[C@@H](CCNC(=N)N)C(=O)N[C@@H](CCCNC(=N)N)C(=O)N[C@@H](CCCNC(=N)N)C(N)=O` (H-VRLIVAVRI[Agb]RR-NH2), the inhibition entry with Staphylococcus aureus [1] was “Dose-dependent effect”. In addition, the result in the assay on Staphylococcus aureus [2] was Active. Also, the “residual biofilm growth (% of control)” value in the assay with Staphylococcus aureus [3] was determined as 103.7%.

The values above are taken from ChEMBL document CHEMBL4376833, “Influence of Non-natural Cationic Amino Acids on the Biological Activity Profile of Innate Defense Regulator Peptides” (J Med Chem, 2019).
